± gives the standard deviation of the averaged measurements.
Key:
Test in all cases: relative viability vs DMSO control (72 h) (fraction); higher = more viable cells
HS729 = tested on: HS729
Method in brief: (§1)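 Relative viability was measured with ATPLite and expressed as percent growth, averaged across up to triplicate wells. Sarcoma cell lines had been seeded in 384-well plates to reach 80–90% confluence, dosed after 24 h, and incubated 72 h at 37 °C, 5% CO2. All data were rescaled on a scale where 1 is full and 0 is none.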

SK-LMS-1 = tested on: SK-LMS-1
Method in brief: as §1

MES-SA = tested on: MES-SA
Method in brief: as §1

G401 = tested on: G401
Method in brief: as §1

SW872 = tested on: SW872
Method in brief: as §1

A204 = tested on: A204
Method in brief: as §1

SYO-1 = tested on: SYO-1
Method in brief: as §1

KHOS-NP = tested on: KHOS-NP
Method in brief: as §1

SW684 = tested on: SW684
Method in brief: as §1

VA-ES-BJ = tested on: VA-ES-BJ
Method in brief: as §1

SW1353 = tested on: SW1353
Method in brief: as §1

HT1080 = tested on: HT1080
Method in brief: as §1

With `Cc1cc(Nc2ncc(Cl)c(Nc3ccccc3S(=O)(=O)C(C)C)n2)c(OC(C)C)cc1C1CCNCC1` [Ceritinib] the relative viability (HS729; 0.00017 µM) was 0.955 ± 0.063, the relative viability (HS729; 0.00051 µM) was 1.02 ± 0.042 and the relative viability (HS729; 0.00152 µM) was 1.03 ± 0.053. For the same molecule, the relative viability (HS729; 0.00457 µM) was 1.01 ± 0.029, the relative viability (HS729; 0.01372 µM) was 1.03 ± 0.033 and the relative viability (HS729; 0.04115 µM) was 1.02 ± 0.042. The relative viability (HS729; 0.1235 µM) was 0.95 ± 0.068, the relative viability (HS729; 0.3704 µM) was 0.847 ± 0.067 and the relative viability (HS729; 1.111 µM) was 0.751 ± 0.052. It also gave a relative viability (HS729; 3.333 µM) of 0.626 ± 0.018, a relative viability (HS729; 10 µM) of 0.0042 ± 0.0004 and a relative viability (SK-LMS-1; 0.00017 µM) of 1.01 ± 0.015. It also gave a relative viability (SK-LMS-1; 0.00051 µM) of 1.04 ± 0.014, a relative viability (SK-LMS-1; 0.00152 µM) of 1.04 ± 0.019 and a relative viability (SK-LMS-1; 0.00457 µM) of 1.03 ± 0.032. The relative viability (SK-LMS-1; 0.01372 µM) was 1.022 ± 0.0083, the relative viability (SK-LMS-1; 0.04115 µM) was 1.01 ± 0.051 and the relative viability (SK-LMS-1; 0.1235 µM) was 1.05 ± 0.051. The relative viability (SK-LMS-1; 0.3704 µM) was 0.959 ± 0.046, the relative viability (SK-LMS-1; 1.111 µM) was 0.96 ± 0.03 and the relative viability (SK-LMS-1; 3.333 µM) was 0.794 ± 0.093. For the same molecule, the relative viability (SK-LMS-1; 10 µM) was 0.00573 ± 0.00047, the relative viability (MES-SA; 0.00017 µM) was 0.953 ± 0.036 and the relative viability (MES-SA; 0.00051 µM) was 0.92 ± 0.065. It also gave a relative viability (MES-SA; 0.00152 µM) of 0.95 ± 0.028, a relative viability (MES-SA; 0.00457 µM) of 0.951 ± 0.026 and a relative viability (MES-SA; 0.01372 µM) of 0.963 ± 0.046. The relative viability (MES-SA; 0.04115 µM) was 0.969 ± 0.033, the relative viability (MES-SA; 0.1235 µM) was 0.96 ± 0.022 and the relative viability (MES-SA; 0.3704 µM) was 0.98 ± 0.028. The relative viability (MES-SA; 1.111 µM) was 0.94 ± 0.023, the relative viability (MES-SA; 3.333 µM) was 0.676 ± 0.039 and the relative viability (MES-SA; 10 µM) was -0.00177 ± 0.00067. It also gave a relative viability (G401; 0.00017 µM) of 0.953 ± 0.026, a relative viability (G401; 0.00051 µM) of 0.932 ± 0.049 and a relative viability (G401; 0.00152 µM) of 0.971 ± 0.035. For the same molecule, the relative viability (G401; 0.00457 µM) was 0.974 ± 0.011, the relative viability (G401; 0.01372 µM) was 0.972 ± 0.033 and the relative viability (G401; 0.04115 µM) was 0.961 ± 0.031. It also gave a relative viability (G401; 0.1235 µM) of 0.918 ± 0.022, a relative viability (G401; 0.3704 µM) of 0.788 ± 0.0017 and a relative viability (G401; 1.111 µM) of 0.615 ± 0.043. It also gave a relative viability (G401; 3.333 µM) of 0.416 ± 0.045, a relative viability (G401; 10 µM) of -0.00287 ± 0.00021 and a relative viability (SW872; 0.00017 µM) of 1 ± 0.011. It also gave a relative viability (SW872; 0.00051 µM) of 1.02 ± 0.023, a relative viability (SW872; 0.00152 µM) of 1.07 ± 0.04 and a relative viability (SW872; 0.00457 µM) of 1.06 ± 0.027. The relative viability (SW872; 0.01372 µM) was 1.09 ± 0.032, the relative viability (SW872; 0.04115 µM) was 1.04 ± 0.029 and the relative viability (SW872; 0.1235 µM) was 1 ± 0.038. For the same molecule, the relative viability (SW872; 0.3704 µM) was 0.946 ± 0.057, the relative viability (SW872; 1.111 µM) was 0.8717 ± 0.0073 and the relative viability (SW872; 3.333 µM) was 0.631 ± 0.031. For the same molecule, the relative viability (SW872; 10 µM) was -0.00807 ± 0.00038, the relative viability (A204; 0.00017 µM) was 1.05 ± 0.065 and the relative viability (A204; 0.00051 µM) was 1.07 ± 0.08. It also gave a relative viability (A204; 0.00152 µM) of 1.08 ± 0.043, a relative viability (A204; 0.00457 µM) of 1.07 ± 0.057 and a relative viability (A204; 0.01372 µM) of 1.07 ± 0.037. It also gave a relative viability (A204; 0.04115 µM) of 1.06 ± 0.018, a relative viability (A204; 0.1235 µM) of 1.06 ± 0.031 and a relative viability (A204; 0.3704 µM) of 1.04 ± 0.043. The relative viability (A204; 1.111 µM) was 0.928 ± 0.073, the relative viability (A204; 3.333 µM) was 0.334 ± 0.15 and the relative viability (A204; 10 µM) was 0.0012 ± 0.00082. It also gave a relative viability (SYO-1; 0.00017 µM) of 1.02 ± 0.036, a relative viability (SYO-1; 0.00051 µM) of 1.02 ± 0.058 and a relative viability (SYO-1; 0.00152 µM) of 1.06 ± 0.044. The relative viability (SYO-1; 0.00457 µM) was 1.07 ± 0.011, the relative viability (SYO-1; 0.01372 µM) was 1.05 ± 0.05 and the relative viability (SYO-1; 0.04115 µM) was 1.01 ± 0.057. The relative viability (SYO-1; 0.1235 µM) was 0.987 ± 0.037, the relative viability (SYO-1; 0.3704 µM) was 0.919 ± 0.011 and the relative viability (SYO-1; 1.111 µM) was 0.882 ± 0.015. For the same molecule, the relative viability (SYO-1; 3.333 µM) was 0.51 ± 0.16, the relative viability (SYO-1; 10 µM) was -0.00767 ± 0.001 and the relative viability (KHOS-NP; 0.00017 µM) was 1.04 ± 0.021. The relative viability (KHOS-NP; 0.00051 µM) was 1.04 ± 0.01, the relative viability (KHOS-NP; 0.00152 µM) was 1.04 ± 0.027 and the relative viability (KHOS-NP; 0.00457 µM) was 1.06 ± 0.032. For the same molecule, the relative viability (KHOS-NP; 0.01372 µM) was 1.06 ± 0.029, the relative viability (KHOS-NP; 0.04115 µM) was 1.05 ± 0.0023 and the relative viability (KHOS-NP; 0.1235 µM) was 1.05 ± 0.019. For the same molecule, the relative viability (KHOS-NP; 0.3704 µM) was 1.02 ± 0.03, the relative viability (KHOS-NP; 1.111 µM) was 1.02 ± 0.044 and the relative viability (KHOS-NP; 3.333 µM) was 0.95 ± 0.056. For the same molecule, the relative viability (KHOS-NP; 10 µM) was 0.0055 ± 0.00096, the relative viability (SW684; 0.00017 µM) was 1.07 ± 0.033 and the relative viability (SW684; 0.00051 µM) was 1.083 ± 0.0088. For the same molecule, the relative viability (SW684; 0.00152 µM) was 1.09 ± 0.02, the relative viability (SW684; 0.00457 µM) was 1.08 ± 0.018 and the relative viability (SW684; 0.01372 µM) was 1.12 ± 0.028. For the same molecule, the relative viability (SW684; 0.04115 µM) was 1.095 ± 0.0027, the relative viability (SW684; 0.1235 µM) was 1.122 ± 0.0065 and the relative viability (SW684; 0.3704 µM) was 1.08 ± 0.051. For the same molecule, the relative viability (SW684; 1.111 µM) was 1.15 ± 0.065, the relative viability (SW684; 3.333 µM) was 0.883 ± 0.026 and the relative viability (SW684; 10 µM) was -0.0212 ± 0.00038. For the same molecule, the relative viability (VA-ES-BJ; 0.00017 µM) was 1.05 ± 0.036, the relative viability (VA-ES-BJ; 0.00051 µM) was 1.04 ± 0.035 and the relative viability (VA-ES-BJ; 0.00152 µM) was 1.04 ± 0.033. The relative viability (VA-ES-BJ; 0.00457 µM) was 1.05 ± 0.024, the relative viability (VA-ES-BJ; 0.01372 µM) was 1.06 ± 0.012 and the relative viability (VA-ES-BJ; 0.04115 µM) was 1.03 ± 0.015. For the same molecule, the relative viability (VA-ES-BJ; 0.1235 µM) was 1.02 ± 0.037, the relative viability (VA-ES-BJ; 0.3704 µM) was 0.975 ± 0.018 and the relative viability (VA-ES-BJ; 1.111 µM) was 0.954 ± 0.054. It also gave a relative viability (VA-ES-BJ; 3.333 µM) of 0.929 ± 0.035, a relative viability (VA-ES-BJ; 10 µM) of -0.008 ± 0.0015 and a relative viability (SW1353; 0.00017 µM) of 0.94 ± 0.04. The relative viability (SW1353; 0.00051 µM) was 0.939 ± 0.037, the relative viability (SW1353; 0.00152 µM) was 0.969 ± 0.032 and the relative viability (SW1353; 0.00457 µM) was 0.953 ± 0.025. It also gave a relative viability (SW1353; 0.01372 µM) of 0.948 ± 0.029, a relative viability (SW1353; 0.04115 µM) of 0.953 ± 0.035 and a relative viability (SW1353; 0.1235 µM) of 0.932 ± 0.015. It also gave a relative viability (SW1353; 0.3704 µM) of 0.89 ± 0.036, a relative viability (SW1353; 1.111 µM) of 0.901 ± 0.086 and a relative viability (SW1353; 3.333 µM) of 0.137 ± 0.2. The relative viability (SW1353; 10 µM) was 0.00227 ± 0.0014, the relative viability (HT1080; 0.00017 µM) was 1.02 ± 0.092 and the relative viability (HT1080; 0.00051 µM) was 1.01 ± 0.065. It also gave a relative viability (HT1080; 0.00152 µM) of 1.02 ± 0.026, a relative viability (HT1080; 0.00457 µM) of 1.04 ± 0.035 and a relative viability (HT1080; 0.01372 µM) of 1.02 ± 0.019. For the same molecule, the relative viability (HT1080; 0.04115 µM) was 1.06 ± 0.017, the relative viability (HT1080; 0.1235 µM) was 1.04 ± 0.046 and the relative viability (HT1080; 0.3704 µM) was 1.03 ± 0.048. The relative viability (HT1080; 1.111 µM) was 0.983 ± 0.029, the relative viability (HT1080; 3.333 µM) was 0.777 ± 0.033 and the relative viability (HT1080; 10 µM) was -0.000267 ± 0.00081.

Source: the supplement of paper PMC10883282
